We go through 9 compounds from patent US9371294B2, “Cycloalkenyl aryl derivatives for CETP inhibitor” (CHONG KUN DANG PHARMACEUTICAL CORP., priority 2011, dated 2016).

One test deals with golden syrian hamsters. Briefly: Test for anti-hyperlipidemia activity in hamsters (blood HDL-c levels). The format is in vivo. To be noted: male golden syrian hamsters; 3 mg/kg orally for 5 days; serum HDL-cholesterol 4 hours after last administration; vs vehicle control. The text has this: […] Test for Anti-Hyderlipidemia Activity in Hamsters
1. Experimental animals As test animals, 8-week-old male golden syrian hamsters were purchased and used in the experimental. The animal facility was kept at constant temperature and constant humidity with a 12-hr dark/12-hr light cycle, and the animals were allowed to access food and water ad libitum.
2. Experimental for Anti-Hyperlipidemia Activity in Hamsters
The test animals were used in the test after an acclimation of 1 week. The test animals were divided according to body weight into several groups, each consisting of 5-8 animals. 3 mg/kg of each test compound (CETP inhibitor) was administered orally to the animals. Each test compounds was suspended in a solvent vehicle that is a solution of 5% ethanol, 10% solutol and 85% deionized water (DW), to be used. Each of test compounds suspended in a solvent vehicle was administered orally to the […] for 5 days. To the control group, a solvent vehicle itself was administered. And then, after 4 hours from the last administration, blood was collected through the cardiac puncture. The collected blood was centrifuged at 3000 rpm for 15 minutes, and the concentration of HDL-cholesterol (Biosystem) in the separated serum was measured using a biochemical analyzer (ILab 300 plus, Instrumentation Laboratory).
3. Statistical Processing
All the results were expressed as mean±SEM, and each test group and the control group were compared using one-way ANOVA test (Dunnett's test, p<0.001) in order to determine the effect of each test group.

The target in test [1] is T1, cholesteryl ester transfer protein (Homo sapiens, UniProt P11597).
T1 construct: As a source of cholesteryl ester transfer protein, plasma from healthy humans was used; from tissue; host or cells: plasma from healthy humans
T1 sequence (P11597 18-493): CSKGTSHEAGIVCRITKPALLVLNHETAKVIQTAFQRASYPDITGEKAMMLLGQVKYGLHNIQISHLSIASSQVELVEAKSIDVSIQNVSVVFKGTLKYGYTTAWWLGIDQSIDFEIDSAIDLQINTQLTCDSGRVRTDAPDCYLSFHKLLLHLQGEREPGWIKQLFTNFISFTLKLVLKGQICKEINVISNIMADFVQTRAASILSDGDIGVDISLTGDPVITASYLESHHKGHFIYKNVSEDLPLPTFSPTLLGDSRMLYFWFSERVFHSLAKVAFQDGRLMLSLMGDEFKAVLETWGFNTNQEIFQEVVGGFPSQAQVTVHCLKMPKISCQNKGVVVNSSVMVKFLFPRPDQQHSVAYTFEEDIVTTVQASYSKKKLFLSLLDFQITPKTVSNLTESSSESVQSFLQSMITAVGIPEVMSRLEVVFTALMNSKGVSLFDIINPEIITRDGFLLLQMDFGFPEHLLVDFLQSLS
Briefly: In vitro test for the ability to inhibit cholesteryl ester transfer. The format is biochemical. To be noted: [3H]-cholesteryl oleate transfer from rHDL-agarose to LDL; human plasma as CETP source; 37° C.; 16-10000 nM, duplicate. The essentials: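 Human plasma served as the CETP source, with human LDL (0.25 mg/ml) as acceptor and agarose-immobilised recombinant HDL carrying [3H]-cholesteryl oleate (0.25 mg/ml) as donor, at 37 °C. Compounds were run in duplicate at 16–10000 nM. Transferred radioactivity in the supernatant was counted by beta detection, and IC50 was fitted from the fraction of label transferred to LDL.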

Consider `COc1ccc(C(C)(C)C)cc1C1=C(CN2C(=O)O[C@H](c3cc(C(F)(F)F)cc(C(F)(F)F)c3)[C@@H]2C)CC(C)(C)CC1` [Compound 115, (4S,5R)-5-(3,5-bis(trifluoromethyl)phenyl)-3-((2-(5-tert-butyl-2-methoxyphenyl)-5,5-dimethylcyclohex-1-enyl)methyl)-4-methyloxazolidin-2-one], for which, in the test on golden syrian hamsters, the “HDL-c Increase (%)” value worked out at 29%. The compound also had an IC50 in test [1] of 10 nM. The matching figures for `COc1ccc(N(C)C(C)=O)cc1C1=C(CN2C(=O)O[C@H](c3cc(C(F)(F)F)cc(C(F)(F)F)c3)[C@@H]2C)CC(C)(C)CC1` [Compound 112, N-(3-(2-(((4S,5R)-5-(3,5-bis(trifluoromethyl)phenyl)-4-methyl-2-oxooxazolidin-3-yl)methyl)-4,4-dimethylcyclohex-1-enyl)-4-methoxyphenyl)-N-methylacetamide]: 43% and 8 nM. For `COc1cc(F)c(C(C)C(F)(F)F)cc1C1=C(CN2C(=O)O[C@H](c3cc(C(F)(F)F)cc(C(F)(F)F)c3)[C@@H]2C)CC(C)(C)CC1` (stereo partly drawn) [Compound 132, (4S,5R)-5-(3,5-bis(trifluoromethyl)phenyl)-3-((2-(4-fluoro-2-methoxy-5-(1,1,1-trifluoropropan-2-yl)phenyl)-5,5-dimethylcyclohex-1-enyl)methyl)-4-methyloxazolidin-2-one], in that order: 33% and 50 nM. The matching figures for `COc1cc(F)c(C(C)C)cc1C1=C(CN2C(=O)O[C@H](c3cc(C(F)(F)F)cc(C(F)(F)F)c3)[C@@H]2C)CC2(CC1)CC2` [Compound 274, (4S,5R)-5-(3,5-bis(trifluoromethyl)phenyl)-3-((6-(4-fluoro-5-isopropyl-2-methoxyphenyl)spiro[2.5]oct-5-en-5-yl)methyl)-4-methyloxazolidin-2-one]: 21% and 14 nM.

Regarding `COc1ccc(C(C)C)cc1C1=C(CN2C(=O)O[C@H](c3cc(C(F)(F)F)cc(C(F)(F)F)c3)[C@@H]2C)CC(C(F)(F)F)CC1` (stereo partly drawn) [Compound 108, (4S,5R)-5-(3,5-bis(trifluoromethyl)phenyl)-3-((2-(5-isopropyl-2-methoxyphenyl)-5-(trifluoromethyl)cyclohex-1-enyl)methyl)-4-methyloxazolidin-2-one], in the test with golden syrian hamsters, the “HDL-c Increase (%)” value is listed as 23%. In test [1], this compound had a half-maximal inhibitory concentration (IC50) of 20 nM. The matching figures for `COc1ccc(CC(C)(C)C(=O)O)cc1C1=C(CN2C(=O)O[C@H](c3cc(C(F)(F)F)cc(C(F)(F)F)c3)[C@@H]2C)CC(C)(C)CC1` [Compound 286, 3-(3-(2-(((4S,5R)-5-(3,5-bis(trifluoromethyl)phenyl)-4-methyl-2-oxooxazolidin-3-yl)methyl)-4,4-dimethylcyclohex-1-enyl)-4-methoxyphenyl)-2,2-dimethylpropanoic acid]: 42% and 12 nM. As to `COc1cc(F)c(C(C)C)cc1C1=C(CN2C(=O)O[C@H](c3cc(C(F)(F)F)cc(C(F)(F)F)c3)[C@@H]2C)CC(C)(C)CC1` [Compound 19, (4S,5R)-5-(3,5-bis(trifluoromethyl)phenyl)-3-((2-(4-fluoro-5-isopropyl-2-methoxyphenyl)-5,5-dimethylcyclohex-1-enyl)methyl)-4-methyloxazolidin-2-one], in the test on golden syrian hamsters, the “HDL-c Increase (%)” value is recorded as 35%.

Turning to `COc1cc(F)c(C(C)C)cc1C1=C(CN2C(=O)O[C@H](c3cc(C(F)(F)F)cc(C(F)(F)F)c3)[C@@H]2C)CC(C)CC1` (stereo partly shown) [Compound 25], the “HDL-c Increase (%)” value with golden syrian hamsters is recorded as 33%. For the same compound, the IC50 in test [1] was 200 nM.

In the case of `COc1ccc(N(C)C(=O)C(C)C)cc1C1=C(CN2C(=O)O[C@H](c3cc(C(F)(F)F)cc(C(F)(F)F)c3)[C@@H]2C)CC(C)(C)CC1` [Compound 113, N-(3-(2-(((4S,5R)-5-(3,5-bis(trifluoromethyl)phenyl)-4-methyl-2-oxooxazolidin-3-yl)methyl)-4,4-dimethylcyclohex-1-enyl)-4-methoxyphenyl)-N-methylisobutyramide], the “HDL-c Increase (%)” value in the test on golden syrian hamsters came out at 17%.

Usually IC50 stands for the concentration needed to halve the response being measured. Read a low IC50 as greater potency.
